This note sets out measurements from patent publication EP1276895B1, “METHOD FOR THE IDENTIFICATION OF ACTIVE SITE PROTEASE INACTIVATORS” (THE UNIVERSITY OF GEORGIA RESEARCH FOUNDATION, INC., priority 2000, dated 2001).

As a reminder, the % Inhibition is the share of the control response that was lost under treatment. Read a high % Inhibition as a response far below the control. As a reminder, the inhibition is the relative decrease from the control value, in per cent.

Experiment [1] concerns Taenia solium crude mix. The experiment is described as follows: Competitor assay of vehicles against high Vmax substrate cocktails (Step III), crude mix. The conditions noted are these: for V Value: V = P * M. Type of experiment: biochemical. As to the method:
Step III for a crude mix proceeds it would for a purified protease, except that Vm is used instead of kcat.
The experiment began with a competitor test between the noncleaved low Vmax substrates and the highest Vmax substrate, Z-Phe-Arg-AFC. Concentrations were varied between the low Vmax substrate and Z-Phe-Arg-AFC, as described above under "refinement of assay" until a relative inhibition profile was obtained.
Percent inhibition was calculated as: %Inhibition =; ((AFC positive for"Y"-AFC negative for"Y")-(AFC test-AFC negative for"Y")X100)/(AFC positive for "Y"-AFC negative for "Y") [formula]
One of the most intriguing findings in this experiment was that a highly similar inhibition pattern for the competitor assay was noted when the crude mix was employed as the source of the target protease. Although there were some variations in the effects of inhibitor dilution, the most highly ranked vehicles remained inhibitory consistently in comparison to the profile with the target protease. The relative profile and composition of the top tiers of vehicles was identical. Z-LLL-AFC, Z-LLY-AFC, Mu-LY-AFC, Boc-VPR-AFC, Z-SY-AFC, Z-RR-AFC, Z-FLF-AFC, Z-LGR-AFC consistently presented as the top eight vehicles (Fig. 5b), respectively, based upon their V values (Table 2). […] It was notable that the three vehicles had very similar V values. […] As was mentioned, this vehicle along with Z-LLL-AFC and Z-LLY-AFC, were consistently the most inhibitory vehicles. The V values of the most inhibitory vehicle series are shown below in Table 2. Again, a clear break between the first and second tier vehicles could be noted with the V value. Table 2. Vehicles and V value rankings.

The target in experiment [2] is Cathepsin B (cysteine) (Homo sapiens, UniProt P07858). The experiment is described as follows: Differential cleavage (selectivity) test, Cathepsin B. It is filed as biochemical. The following applies: 0.4 M Citrate pH 6.1, 10 mM L-cysteine, substrate Z-ARR-AFC; for inhibition at 0.0003 µM: inhibitor 3 X 10^-10 M. As to the method:
(§1) In order to perform the assay, the vehicle (for Step VI) or inhibitor (for Step IX) were incubated with the appropriate substrate in the correct assay buffer and allowed to equilibrate. Subsequently, the protease was added, and the assay was allowed to incubate for an appropriate time. The concentrations used in this experiment were as follows: Vehicle was set up at 4 X 10^-5 M in final assay buffer; Inhibitor was set up at 3 X 10^-10 M in the final assay buffer. Accordingly, the dosages employed should be the minimal amount of vehicle or inhibitor necessary to induce inhibition. […] Substrates were set up based upon the preferred substrate for cleavage of the particular enzyme.
(§2) Positive controls were set up similarly as described for test controls, except that solvent was added in substitution for the inhibitor or vehicle (in a volume equal to the volume of inhibitor or vehicle addition). All of the inhibitors and vehicles could be dissolved in dimethylsulfoxide (DMSO), and therefore, this was the solvent of choice. Negative controls were set up by adding the inhibitor or vehicle and the preferred substrates in a tube without the protease. All potential non-proteolytic liberation of AFC was therefore controlled for in this tube (a feature which also insured stability of the AFC substrates, since these substrates will freely liberate AFC when unstable).
(§3) All controls were set up in triplicate, and experiments were repeated a minimum of five times.
(§4) Percent inhibition was calculated as: % Inhibition = ((AFC positive for ʺSIʺ-AFC negative for ʺSIʺ)-(AFC test-AFC negative for ʺSIʺ))/(AFC positive for ʺSIʺ-AFC negative for ʺSIʺ) × 100 [formula] In this preliminary test, we employed the following human-derived enzymes (with indicated mechanistic class): Cathepsin B (cysteine), Cathepsin L (cysteine), Cathepsin H (cysteine), Cathepsin D (aspartic) Trypsin (serine), the purified Taenia solium cysteine protease, and the Taenia solium crude mix. Cathepsin B was prepared in an assay buffer of 10 mM L-cysteine in 0.4 M Citrate buffer, pH 6.1, using Z-ARR-AFC as the cleavage substrate. Cathepsin L was prepared in an assay buffer of 10 mM L-cysteine in 0.4 M Citrate buffer, pH 5.5, using Z-FR-AFC as the cleavage substrate. Cathepsin H was prepared in an assay buffer of 10 mM L-cysteine in 0.15 M PBS buffer, pH 6.8, using L-R-AFC as the cleavage substrate. Cathepsin D was prepared in an assay buffer of 0.15 M PBS, pH 7.1, using Z-RGFFP-AFC as the cleavage substrate. Trypsin was prepared in an assay buffer of 0.15 M PBS, pH 8.0, supplemented with 100 mM CaCl2 and with Z-R-AFC as the cleavage substrate. Enzyme was incubated so that it was at least 50 times less than the concentration of substrate in order to insure saturating conditions.

In experiment [3] the target is T1, Cathepsin H (cysteine) (Homo sapiens, UniProt P09668).
T1 sequence (P09668 98-335): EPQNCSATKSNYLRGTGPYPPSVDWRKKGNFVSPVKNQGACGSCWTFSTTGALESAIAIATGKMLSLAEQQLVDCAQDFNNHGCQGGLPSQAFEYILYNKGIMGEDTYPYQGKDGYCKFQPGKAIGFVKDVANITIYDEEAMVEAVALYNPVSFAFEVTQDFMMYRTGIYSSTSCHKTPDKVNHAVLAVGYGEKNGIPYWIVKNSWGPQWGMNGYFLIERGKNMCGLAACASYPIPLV
Briefly: Differential cleavage (selectivity) test, Cathepsin H. It is filed as biochemical. The conditions noted are these: 0.15 M PBS pH 6.8, 10 mM L-cysteine, substrate L-R-AFC; for inhibition at 0.0003 µM: inhibitor 3 X 10^-10 M. As to the method: as §1, §2, §3, §4

Experiment [4] deals with Trypsin (serine). Briefly: Differential cleavage (selectivity) test, Trypsin. Type of experiment: biochemical, human. The conditions noted are these: 0.15 M PBS pH 8.0, 100 mM CaCl2, substrate Z-R-AFC. As to the method:
as §1, §2, §3, §4

[5] abbreviates: inhibitor 3 X 10^-10 M, 0.0003 µM.

Residues, ends and D or L forms follow the SMILES beside them. *: point of attachment. AFC = O=c1cc(C(F)(F)F)c2ccc(N*)cc2o1; Cbz = O=C(OCc1ccccc1)*; CH2F = FC*

Mu-Leu-Tyr-AFC [Mu-LY-AFC]: in experiment [1], the Tier is 1 (The first tier was composed of those vehicles, which produced inhibition greater than 50% when in the presence of the 1.4% cocktail). Further, the “V Value” in experiment [1] was 0.45. Besides, the “% Inhibition” value in experiment [2] (vehicle 4 X 10^-5 M, 40 µM) is recorded as 0%; in experiment [3] (vehicle 4 X 10^-5 M, 40 µM), 0%; in experiment [4] (vehicle 4 X 10^-5 M, 40 µM) it was 0%.

Take `CC(C)C[C@H](NC(=O)OCc1ccccc1)C(=O)N[C@@H](CC(C)C)C(=O)N[C@@H](Cc1ccc(O)cc1)C(=O)Nc1ccc2c(C(F)(F)F)cc(=O)oc2c1` [Z-LLY-AFC, Z-Leu-Leu-Tyr-AFC] (Cbz-Leu-Leu-Tyr-{AFC}): in experiment [1], the Tier is 1 (The first tier was composed of those vehicles, which produced inhibition greater than 50% when in the presence of the 1.4% cocktail) and the “V Value” is 0.55. This compound yielded an inhibition at 40 µM in experiment [2] (vehicle 4 X 10^-5 M) of 0%. Besides, the inhibition at 40 µM in experiment [3] (vehicle 4 X 10^-5 M) stood at 0%. Also, in experiment [4] (vehicle 4 X 10^-5 M, 40 µM), the “% Inhibition” value was 0%.

On to `CC(C)C[C@H](NC(=O)[C@H](CC(C)C)NC(=O)[C@H](CC(C)C)NC(=O)OCc1ccccc1)C(=O)CF` [Z-LLL-FMK, Z-Leu-Leu-Leu-fluoromethylketone] (Cbz-Leu-Leu-Leu-CH2F), for which the inhibition at 0.0003 µM in experiment [2] and in experiment [3] was 0% in each case. In addition, in experiment [4] (setting [5]), the “% Inhibition” value turned out to be 0%.

For `CC(C)C[C@H](NC(=O)OCc1ccccc1)C(=O)N[C@@H](CC(C)C)C(=O)N[C@@H](CC(C)C)C(=O)Nc1ccc2c(C(F)(F)F)cc(=O)oc2c1` [Z-LLL-AFC, Z-Leu-Leu-Leu-AFC] (Cbz-Leu-Leu-Leu-{AFC}), in experiment [1], the Tier is recorded as 1 (The first tier was composed of those vehicles, which produced inhibition greater than 50% when in the presence of the 1.4% cocktail) and the “V Value” is 0.611. In addition, the inhibition at 40 µM in experiment [2] (vehicle 4 X 10^-5 M) turned out to be 0%. This compound also showed an inhibition at 40 µM in experiment [3] (vehicle 4 X 10^-5 M) of 0%. In addition, the “% Inhibition” value in experiment [4] (vehicle 4 X 10^-5 M, 40 µM) is 0%.

On to `CC(C)C[C@H](NC(=O)OCc1ccccc1)C(=O)N[C@@H](CC(C)C)C(=O)N[C@@H](Cc1ccc(O)cc1)C(=O)CF` [Z-LLY-FMK, Z-Leu-Leu-Tyr-FMK] (Cbz-Leu-Leu-Tyr-CH2F), for which the inhibition at 0.0003 µM in experiment [2] and in experiment [3] was 0% in each case. Further, the “% Inhibition” value in experiment [4] (setting [5]) is 0%.
